Where a name gives a salt, the structure may show the parent alone. Read-outs that look alike come from different tables or passages of the source.
Legend:
MCT cells [1] = test system: MCT cells
Method: Where not otherwise indicated, reagents were purchased from Sigma (Madrid, Spain). A mouse cortical tubule cell line (MCT) was used for the study. Cells were maintained in RPMI 1640 medium (Gibco, Madrid, Spain) supplemented with 10% fetal bovine serum (FBS, Gibco, Madrid, Spain), 500 U/mL penicillin, 50 mg/mL streptomycin (Gibco, Madrid, Spain) and 1 mM L-glutamine. […] During the treatments, cells were photographed under live cell, light microscope (Axiovert 200M, Zeiss; and Nikon Eclipse TS100, Barcelona, Spain) for visual inspection.
MTT assay. Viable cell number was comparatively estimated by incubating cell cultures with 0.5 mg/mL 3-[4,5-dimethylthiazol-2-yl]-2,5-diphrnyl tetrazolium bromide (MTT) for 4h. Then, 10% SDS in 0.01 M HCL was added in 1:1 (vol/vol) and left overnight at 37 °C. Finally, absorbance was measured at 570 nm as an index of viable cell number.

MCT cells [2] = test system: MCT cells; remark: listed apart in the source
Method: (§4) Reagents, cells, and protocols. Where not otherwise indicated, reagents were purchased from Sigma (Madrid, Spain). A mouse cortical tubule cell line (MCT) was used for the study. Cells were maintained in RPMI 1640 medium (Gibco, Madrid, Spain) supplemented with 10% fetal bovine serum (FBS, Gibco, Madrid, Spain), 500 U/mL penicillin, 50 mg/mL streptomycin (Gibco, Madrid, Spain) and 1 mM L-glutamine. […] During the treatments, cells were photographed under live cell, light microscope (Axiovert 200M, Zeiss; and Nikon Eclipse TS100, Barcelona, Spain) for visual inspection. At the end, cell extracts were obtained in extraction buffer (25 mM PIPES, pH7; 25 mM KCI; 5 mM EGTA; 0,5% NP-40, and a mixture of protease inhibitors consisting of 1 mM phenylsulfonyl fluoride, 1 µg/mL leupeptine, and 1 µg/mL aprotinin). Protein content was determined with a commercial kit (Bio-Rad, Madrid, Spain) based in the Lowry method.

MCT cells [3] = test system: MCT cells; remark: listed apart in the source
Method: (§5) A mouse cortical tubule cell line (MCT) was used for the study. Cells were maintained in RPMI 1640 medium (Gibco, Madrid, Spain) supplemented with 10% fetal bovine serum (FBS, Gibco, Madrid, Spain), 500 U/mL penicillin, 50 mg/mL streptomycin (Gibco, Madrid, Spain) and 1 mM L-glutamine. […] During the treatments, cells were photographed under live cell, light microscope (Axiovert 200M, Zeiss; and Nikon Eclipse TS100, Barcelona, Spain) for visual inspection. At the end, cell extracts were obtained in extraction buffer (25 mM PIPES, pH7; 25 mM KCI; 5 mM EGTA; 0,5% NP-40, and a mixture of protease inhibitors consisting of 1 mM phenylsulfonyl fluoride, 1 µg/mL leupeptine, and 1 µg/mL aprotinin). Protein content was determined with a commercial kit (Bio-Rad, Madrid, Spain) based in the Lowry method.
(§6) Caspase activity. Twenty micrograms of protein from cell extracts were incubated with 100 µL reaction buffer (50 mM HEPES, pH7.4; 100 mM NaCl; 1 mM EDTA; 0.1% 3-[3-(cholamidopropyl)-dimethylammonio]-1-propane sulfonate; 10% sucrose; and 5 mM DTT) containing 100 µM of the fluorogenic caspase substrate rhodamine 110, bis-(N-CBZ-L-aspartyl-L-glutamyl-L-valyl-L-aspartic acidamide (Z-DEVD)2Rh110; Anaspec, Fremont, CA, USA)) at 37 °C for 30 min in a Fluoroskan Ascent FL fluorometer (Thermo, Rockford, IL, USA), and fluorescence intensity was measured every 3 min at 538 nm, upon excitation at 485 nm. Caspase activity was calculated from the slope of the linear relationship between fluorescence intensity and time.

MCT cells [4] = assay: Caspase (DEVDase) activity in cell extracts; format: cell-based, mouse; conditions: cisplatin, 18 h, concentration-dependent
Description: (§1) Reagents, cells, and protocols.
(§2) Caspase activity. […] Western blot.

MCT cells [5] = assay: Internucleosomal DNA fragmentation; format: cell-based, mouse; conditions: cisplatin, 18 h, concentration-dependent
Method: as §1
DNA fragmentation. DNA fragmentation was determined with the commercial kit Cell Death Detection Plus (Roche Diagnostics, Barcelona, Spain) in 10 µg of protein from each cell extract.

MCT cells [6] = assay: RT-qPCR analysis of gene expression; format: cell-based, mouse; conditions: 0-30 µM cisplatin, 18 h, normalized with RPS13
Method: as §1
RT-qPCR analysis. Total RNA was isolated using Nucleospin RNAII (Macherey-Nagel, Düren, Germany). First-strand cDNA was generated from 1 µg of total RNA using poly-dT as primer with the M-MLV reverse transcriptase (Promega, Barcelona, Spain). Real-time PCR (qPCR) was performed in triplicate. In a total reaction volume of 20 µL containing 1 µL of cDNA, 0.4 µM of each primer and 1x iQSybrGreen Supermix (Bio-Rad), with initial denaturation at 95 °C for 5 min followed by 40 cycles of 30 sec at 95 °C, and 30 sec at 65 °C, and finally, one cycle of 30 sec at 72 °C. Threshold cycle (Ct) values were obtained. The sequences of TCP1-eta used were: sense 5'-[…]-3' (SEQ ID NO: 1); anti-sense 5'-[…]-3' (SEQ ID NO: 2); and RPS13: sense 5'-[…]-3' (SEQ ID NO: 3); anti-sense 5'-[…]-3' (SEQ ID NO: 4). Standard curves were run for each transcript to assure exponential amplification and to rule out non-specific amplification. Changes in the expression level were calculated following normalization with RPS13. The reactions were run on an iQ5 Real-Time PCR detection system (Bio-Rad, Madrid, Spain).

Male Wistar rats [7] = assay: Rat models of AKI: urinary markers by Western blot; format: in vivo
Description: as §2
(§3) Rat models of AKI. Male Wistar rats (220-240 g) were housed under controlled experimental conditions and allowed free access to regular chow and water. […] Rats were allocated in metabolic cages to obtain 24-hour, individual urine samples. Blood was drawn with a needle from the tail vein, and plasma was obtained by centrifugation and, at the end of the treatments, kidneys were perfused with heparinized saline and immediately dissected. Half of the kidney was fixed in paraformaldehyde for histological studies, and the rest was frozen at -80 °C for biochemical analysis.

Male Wistar rats [8] = assay: Rat models of AKI: renal histopathology; format: in vivo; conditions: hematoxylin and eosin, cisplatin 5 mg/kg i.p., gentamicin 150 mg/kg per day i.p. for 6 days
Description: as §3
Renal histopathology. Paraformaldehyde-fixed tissue samples were immersed in paraffin, cut into […] slices and stained with hematoxylin and eosin.

MCT cells [9] = assay: Apoptotic cells / death phenotype by light microscopy; conditions: medium without serum, 18 h, cisplatin 0-30 µM, cycloheximide 50-800 µM
Method: as §4

MCT cells [10] = assay: Western blot / 2D proteomic analysis of culture medium and cell extracts; conditions: 18 h, cisplatin 0-30 µM, cycloheximide 50-800 µM
Method: as §5, §6

Male Wistar rats [11] = assay: Rat models of AKI: renal function (plasma creatinine); format: in vivo; conditions: cisplatin single i.p. 5 mg/kg, gentamicin i.p. 150 mg/kg per day for 6 days
Method: Renal function. Renal function was monitored by means of plasma creatinine and urea and urinary protein concentration, which were determined with commercial colorimetric kits (Quantichrom Creatinine and Quantichrom Urea Assay Kits, BioAssay Systems, Hayward, CA, USA), according to the manufacturer's instructions.

[12] = rats, cisplatin single i.p. 5 mg/kg, gentamicin i.p. 150 mg/kg per day for 6 days, Western blot

**Q.** Which results are given for C[C@@H]1C[C@@H]([C@H](O)CC2CC(=O)NC(=O)C2)C(=O)[C@@H](C)C1 [Cycloheximide, cycloheximide]?
**A.** cell viability (MCT cells [1]): reduces cell viability; number of apoptotic cells / apoptotic phenotype (MCT cells [2]): induces apoptosis; TCP1-eta in the culture medium (MCT cells [3]): increases TCP1-eta secretion to the culture medium; executioner caspase 3 (active caspase 3, p19 fragment) (MCT cells [3]): executioner caspase 3 activation

**Q.** N.N.[Cl][Pt][Cl] [cisplatin] was tested. Which “caspase (DEVDase) activity” value (MCT cells [4]) did it give?
**A.** increased

**Q.** And the “internucleosomal DNA fragmentation” value (MCT cells [5])?
**A.** increased

**Q.** And the TCP1-eta gene expression (MCT cells [6])?
**A.** progressive TCP1-eta gene induction with increasing concentrations of the drug

**Q.** What about the “urinary NGAL” value (Male Wistar rats [7]; [12]) of the same compound?
**A.** significantly increases

**Q.** And the “urinary TCP1-eta” value (Male Wistar rats [7]; [12])?
**A.** significantly increases

**Q.** What about the “pattern of renal damage (region affected)” value (Male Wistar rats [8]) of the same compound?
**A.** both the cortex and the outer medulla

**Q.** What about the “number of apoptotic cells / apoptotic phenotype” value (MCT cells [9]) of the same compound?
**A.** increased the number of apoptotic cells

**Q.** What about the “TCP1-eta in the culture medium” value (MCT cells [10]) of the same compound?
**A.** increased with increasing concentrations of cisplatin

**Q.** Which “urinary TCP1-eta” value (Male Wistar rats [7]; normal rats, single i.v. injection of sodium maleate 400 mg/kg) does the source give for O=C(O)/C=C\C(=O)O [sodium maleate] here?
**A.** TCP1-eta is excreted with the urine

**Q.** gentamicin was tested. Which Plasma creatinine (Male Wistar rats [11]) did it give?
**A.** significantly increases

**Q.** What about the “urinary NGAL” value (Male Wistar rats [7]; [12]) of the same compound?
**A.** significantly increases

**Q.** What about the “urinary TCP1-eta” value (Male Wistar rats [7]; [12]) of the same compound?
**A.** significantly increases

**Q.** And the “pattern of renal damage (region affected)” value (Male Wistar rats [8])?
**A.** mostly the cortex and, to a lesser extent, the medulla

Source: EP3736570A1, “METHOD FOR THE DIAGNOSIS, SUB-CLASSIFICATION AND PROGNOSIS OF ACUTE KIDNEY INJURY BY DETECTING CCT7” (Fundación Instituto de Estudios de Ciencias de la Salud de …, priority 2019, dated 2020)
